Experimental data reported in patent US11185593B2, “Alkylating agent for alkylating target with driver oncogene mutation” (Chiba Prefecture, priority 2013, dated 2021).

Experiments:
[1] = test system: IMR-32 cells; assay: Cytotoxicity test, Cell Counting Kit-8, 72 hours; type: cell-based; settings: Homo sapiens
Description: (§1) The experiment was carried out in the same manner as that in the case of using KR12. The cells used in the experiment were Kelly cells, SK-N-SH cells, IMR-32 cells, SK-N-AS cells, and MDA-MB-231 cells. These cells were cultured in a DMEM, 10% FBS and 1% Pen/St medium, and in an RPMI1640, 10% FBS and 1% Pen/St medium, respectively. The cells of each type were seeded in each well of a 96-well plate at a cell density of 1000 cells/50 μl/well, and were then cultured under conditions of 37° C., 5% CO2, and saturated humidity for 24 hours. Thereafter, a reagent was diluted with a medium (final concentration: 1, 3, 10, 30, and 100 nM), and the diluted reagent was then added to the cultured cells in an amount of 50 μl/well, and the obtained mixture was then blended. The thus obtained mixture was cultured again under conditions of 37° C., 5% CO2, and saturated humidity for 72 hours. Thereafter, Cell Counting Kit-8 (DOJINDO) was added to the obtained culture in an amount of 10 μl/well, and the thus obtained mixture was blended and was then cultured under conditions of 37° C., 5% CO2, and saturated humidity for 2 hours. The absorbance was measured using Microplate Reader MTP-310 Lab (COLONA ELECTORIC), and the IC50 value was then calculated.
as §1, with “were” for “were Kelly cells, SK-N-SH cells,”, “cells” for “cells, SK-N-AS cells,”, “TGW” for “MDA-MB-231”

[2] = test system: TGW cells; assay: Cytotoxicity test, Cell Counting Kit-8, 72 hours; type: cell-based; settings: TGW cells, 1 to 100 nM, FIG. 33
Description: as §1, with “were” for “were Kelly cells, SK-N-SH cells,”, “cells” for “cells, SK-N-AS cells,”, “TGW” for “MDA-MB-231”

[3] = Body weight and health condition of treated nude mice; type: in vivo; settings: nude mice with SW480 cells; FIG. 15; seco CBI 8.4 mmol
Description: The below-mentioned 3 types of PBS solutions containing each type of cells were subcutaneously transplanted into the femurs of nude mice (i.e., HT29 into 7 mice, LS180 into 7 mice, and SW480 into 6 mice), and thereafter, at a time point in which a tumor adhered to the living body of each mouse and the tumor volume became approximately 100 mm^3, a drug was prepared with a composition of 3.4 mmol KR12 (1.36 mM KR12 dissolved in 2.5 μL of DMSO and 197.5 μL of PBS), or of a DMSO/PBS control (2.5 μL of DMSO and 197.5 μL of PBS). The prepared drug was subjected to sonication for 10 minutes, and 200 μL of the drug was administered to each mouse via the caudal vein thereof. The body weight and the tumor size were measured once three days, and the size of the tumor was measured by the method of 0.52×L×W×D(1/6×π×L×W×D).
Using, as controls, PIP-indole-seco-CBI (KR13) not recognizing a codon 12 mutation and 8.4 mmol seco CBI (3.36 mM CBI dissolved in 2.5 μL of DMSO and 197.5 μL of PBS), instead of the DMSO/PBS control, an experiment was carried out by the same method as that of the above section 11.

[4] = test system: LS180 cells; assay: Cytotoxicity test, WST-8 (cell counting kit-8), 48 hours; type: cell-based, human; settings: LS180 cells
Description: Using LS180 colon cell line, the cells were seeded in each well of a 96-well microplate, resulting in a cell density of 3000 to 5000 cells/well, and they were then cultured overnight. On the following day, KR12 recognizing a codon 12 mutation, WT recognizing wild-type KRAS, and C12-Dp having the same structure as that of KR12, to which an alkylating agent had not been added, were each added to the cultured cells in concentrations of 1 nM, 10 nM, 30 nM, 100 nM, 300 nM, and 1 μM, and were then treated for 48 hours. Thereafter, a WST-8 reagent was added to each well, using cell counting kit-8 (DOJINDO), and the obtained mixture was then reacted for 2 hours. After that, the number of cells was counted at a wavelength of 450 nm according to a colorimetric analysis method using a microplate reader. The method of counting the number of cells comprises: 1) obtaining the mean value of the medium alone, 2) subtracting the mean value of the medium from each well, 3) obtaining the mean value of DMSO, 4) dividing the medium-subtracted value by the mean value of DMSO and then multiplying by 100, 5) obtaining the mean value of each treatment group and a standard deviation, and then preparing a graph. The calculation formula of IC50 is the following: IC50=10 (LOG (A/B)×(50−C)/(D−C)+LOG (B)), wherein A: a higher concentration of two concentrations sandwiching 50%, B: a lower concentration of two concentrations sandwiching 50%, C: inhibitory percentage at B, and D: inhibitory percentage at A.
Using colon cancer and pancreatic cancer cell lines, the cells were seeded in each well of a 96-well microplate, resulting in a cell density of 3000 to 5000 cells/well, and they were then cultured overnight. On the following day, the cells of each type were treated with KR12 recognizing a codon 12 mutation in concentrations of 1 nM, 10 nM, 30 nM, 100 nM, 300 nM, and 1 μM for 48 hours. Thereafter, a WST-8 reagent was added to each well, using cell counting kit-8, and the obtained mixture was then reacted for 2 hours. After that, the number of cells was counted at a wavelength of 450 nm according to a colorimetric analysis method using a microplate reader. The method of counting the number of cells comprises: 1) obtaining the mean value of the medium alone, 2) subtracting the mean value of the medium from each well, 3) obtaining the mean value of DMSO, 4) dividing the medium-subtracted value by the mean value of DMSO and then multiplying by 100, 5) obtaining the mean value of each treatment group and a standard deviation, and then preparing a graph. […]

[5] = test system: Kelly cells; assay: Cytotoxicity test, Cell Counting Kit-8, 72 hours; type: cell-based; settings: ALK F1174L neuroblastoma
Description: as §1

[6] = test system: SK-N-AS cells; assay: Cytotoxicity test, Cell Counting Kit-8, 72 hours; type: cell-based; settings: Homo sapiens, wild-type ALK neuroblastoma
Description: as §1

[7] = test system: SK-N-SH cells; assay: Cytotoxicity test, Cell Counting Kit-8, 72 hours; type: cell-based; settings: Homo sapiens, ALK F1174L neuroblastoma
Description: as §1

[8] = test system: MDA-MB-231 cells; assay: Cytotoxicity test, Cell Counting Kit-8, 72 hours; type: cell-based; settings: Homo sapiens, MDA-MB-231, breast cancer
Description: as §1, with “Thereafter, Cell Counting Kit-8 (DOJINDO) was added to the obtained culture in an amount of 10 μl/well, and the thus obtained mixture was blended and was then cultured under conditions of 37° C., 5% CO2, and saturated humidity for 2 hours.” left out
The experiment was carried out in the same manner as that in the case of using KR12. […] The absorbance was measured using Microplate Reader MTP-310 Lab (COLONA ELECTORIC), and the IC50 value was then calculated.

[9] = test system: MCF7 cells; assay: Cytotoxicity test, Cell Counting Kit-8, 72 hours; type: cell-based; settings: Homo sapiens, MCF7, breast cancer, PIK3CA E545K, FIG. 27A
Description: as §1, with “MCF7 cells” for “Kelly cells, SK-N-SH cells, IMR-32 cells, SK-N-AS cells,”

CC(=O)Nc1cc(C(=O)Nc2cn(C)c(C(=O)Nc3cc(C(=O)NCCC(=O)Nc4cn(C)c(C(=O)Nc5cc(C(=O)NCCCC(=O)Nc6cc(C(=O)Nc7cc(C(=O)NCCC(=O)Nc8cc(C(=O)Nc9ccc%10[nH]c(C(=O)N%11CC(CCl)c%12c%11cc(O)c%11ccccc%12%11)cc%10c9)n(C)c8)n(C)c7)n(C)c6)n(C)c5)n4)n(C)c3)n2)n(C)c1 (stereo not shown) [MYCNA2]
IC50 ([1]; IMR-32 cells, 1 to 100 nM, FIG. 33): 12.1 nM
IC50 [2]: 11.2 nM

Oc1cc2c(c3ccccc13)C(CCl)CN2 (stereo not shown) [seco-CBI, 1-chloromethyl-5-hydroxy-1,2-dihydro-3H-benzo[e]indole]
tendency of body weight reduction [3]: the tendency of body weight reduction, which was observed

CC(=O)Nc1cn(C)c(C(=O)Nc2cn(C)c(C(=O)NCCC(=O)Nc3cn(C)c(C(=O)Nc4cn(C)c(C(=O)Nc5cc(C(=O)Nc6cn(C)c(C(=O)NCCCC(=O)Nc7cc(C(=O)Nc8cn(C)c(C(=O)NCCC(=O)Nc9cc(C(=O)Nc%10cc(C(=O)Nc%11ccc%12[nH]c(C(=O)N%13CC(CCl)c%14c%13cc(O)c%13ccccc%14%13)cc%12c%11)n(C)c%10)n(C)c9)n8)n(C)c7)n6)n(C)c5)n4)n3)n2)n1 (stereo not shown) [WT]
IC50 ([4]; Homo sapiens, WST-8, FIG. 8, read-out: IC50): 193 nM

CC(=O)Nc1cn(C)c(C(=O)Nc2cc(C(=O)NCCC(=O)Nc3cn(C)c(C(=O)Nc4cn(C)c(C(=O)Nc5cc(C(=O)Nc6cn(C)c(C(=O)NCCCC(=O)Nc7cc(C(=O)Nc8cn(C)c(C(=O)NCCC(=O)Nc9cc(C(=O)Nc%10cc(C(=O)Nc%11ccc%12[nH]c(C(=O)NCCC(=O)N(C)C)cc%12c%11)n(C)c%10)n(C)c9)n8)n(C)c7)n6)n(C)c5)n4)n3)n(C)c2)n1 [C12-Dp]
suppression of the cell growth ([4]; 1 nM to 1 μM, FIG. 8): suppression of the cell growth was not observed

CC(=O)Nc1cc(C(=O)Nc2cc(C(=O)Nc3cc(C(=O)Nc4cc(C(=O)NCCC(=O)Nc5cc(C(=O)Nc6cc(C(=O)Nc7cc(C(=O)NCCCC(=O)Nc8cn(C)c(C(=O)Nc9cn(C)c(C(=O)NCCC(=O)Nc%10cn(C)c(C(=O)Nc%11cn(C)c(C(=O)Nc%12cc(C(=O)Nc%13ccc%14[nH]c(C(=O)N%15CC(CCl)c%16c%15cc(O)c%15ccccc%16%15)cc%14c%13)n(C)c%12)n%11)n%10)n9)n8)n(C)c7)n(C)c6)n(C)c5)n(C)c4)n(C)c3)n(C)c2)n(C)c1 (stereo not shown) [ALK-FL-1]
IC50 [5]: 0.09 nM
IC50 [6]: 2.6 nM
IC50 [7]: 0.13 nM
IC50 ([1]; IMR-32, IMR32, wild-type ALK neuroblastoma): 0.46 nM
IC50 ([8]; wild-type ALK gene): 7.5 nM

CC(=O)Nc1cc(C(=O)Nc2cc(C(=O)Nc3cn(C)c(C(=O)NCCC(=O)Nc4cc(C(=O)Nc5cn(C)c(C(=O)Nc6cn(C)c(C(=O)NCCCC(=O)Nc7cc(C(=O)Nc8cc(C(=O)NCCC(=O)Nc9cn(C)c(C(=O)Nc%10cc(C(=O)Nc%11ccc%12[nH]c(C(=O)N%13CC(CCl)c%14c%13cc(O)c%13ccccc%14%13)cc%12c%11)n(C)c%10)n9)n(C)c8)n(C)c7)n6)n5)n(C)c4)n3)n(C)c2)n(C)c1 (stereo not shown) [P3A-E5K-2]
IC50 [9]: > 100 nM

CC(=O)Nc1cc(C(=O)Nc2cc(C(=O)Nc3cn(C)c(C(=O)Nc4cc(C(=O)NCCC(=O)Nc5cn(C)c(C(=O)Nc6cn(C)c(C(=O)NCCCC(=O)Nc7cc(C(=O)Nc8cc(C(=O)NCCC(=O)Nc9cn(C)c(C(=O)Nc%10cc(C(=O)Nc%11ccc%12[nH]c(C(=O)N%13CC(CCl)c%14c%13cc(O)c%13ccccc%14%13)cc%12c%11)n(C)c%10)n9)n(C)c8)n(C)c7)n6)n5)n(C)c4)n3)n(C)c2)n(C)c1 (stereo not shown) [P3A-E5K-1]
IC50 ([8]; wild-type PIK3CA gene, FIG. 27B): > 100 nM
IC50 [9]: 53.8 nM
